# Tested on: rabbit kidney brush border membranes (RBBM)
# Assay: physchem
# Assay type: biochemical
# Details: 20 μg RBBM, 100 nM inhibitor, 60 min, 25° C.
# Experimental: The kelatorphan was prepared according to the method described for compound 13 by Fournie-Saluski et al., J. Med. Chem. 28, 1158-1169 (1985). The following procedure was performed at 4° C. Rabbit kidneys were obtained fresh and were perfused with buffer A (containing 5 mM Tris, pH 7.5, 0.25 M sucrose, 3 mM MgCl2 and 1 mM EDTA) to remove the blood. (EDTA=ethylenediaminetetraacetic acid.) The kidneys were minced, homogenized in 5 volumes of ice-cold buffer A with a Brinkmann Polytron homogenizer and filtered through two layers of cheesecloth. The filtrate was centrifuged at 5,000×g for 20 min, the pellet was discarded and the supernatant was centrifuged at 15,000×g for 20 min. The supernatant was retained and then centrifuged at 100,000×g for 90 min. The pellet was resuspended in 50 mM Tris, pH 7.5, and the suspension was centrifuged at 100,000×g for 90 min. The washed pellet was resuspended in 50 mM Tris, pH 7.5, to give a final protein concentration of 4 mg/ml using the protein assay of Bradford, Anal. Biochem. 72, 248-254 (1976). The membrane preparation was assayed for aminopeptidase and alkaline phosphatase activities which are the marker enzymes for the kidney brush border. See Inui et al., Biochim. Biophys. Acta 647, 150-154 (1981). The final membrane preparation was enriched 8-fold in alkaline phosphatase activity, and 11-fold in aminopeptidase activity, compared to the homogenate. Renal brush border membranes (10-20 μg) were preincubated for 15 min at 25° C. in a solution containing the inhibitor and 50 mM Tris, pH 7.5. […] Incubations were for 60 min at 25° C. and were terminated by removing the membranes by filtration using Gelman GA-6 filters. The filtrates were immediately frozen on dry ice and were stable for 1 week when stored at -80° C. Samples containing the peptide degradation products were resolved by C18 reversed phase high pressure liquid chromatography (HPLC). The frozen samples were thawed immediately before injection onto a Vydac C18 column (4.6 mm I.D.×25 cm; 5 micron/300 Å) equilibrated with water containing 0.05% trifluoracetic acid (TFA). Peptide fragments and starting material were separated on a linear gradient of 0-35% acetonitrile also containing 0.05% TFA. Both the gradient and the flow rate (1 ml/min) were maintained by a Waters HPLC system consisting of two Model 510 pumps connected to an Automated Gradient Controller. Column effluent was monitored at 220 nm by a Waters Model 481 spectrophotometer, and the amount of atrial peptide material and peptide fragments were measured via a Hewlett-Packard Model […] integrator. […] Therefore, in those cases where the N-terminal serine was removed, the total amount of biologically active material remaining at the end of the incubation was taken as the % starting material remaining plus % des […] -AP-I or des […] -AP-III (as appropriate), as calculated from the peak areas of the individual peptides on HPLC.
smiles,measurement,setting,value
"O=C(O)CNC(=O)C(CS)Cc1ccccc1 (racemic) [thiorphan, N-(DL-2-benzyl-3-mercapto-propionyl)glycine]",Peak area as % Initial AP: AP,(c) 40 μM AP-I,27.3%
same,Peak area as % Initial AP: AP + des Ser^1 -AP,(c) 40 μM AP-I,87.9%
same,Peak area as % Initial AP: des Ser^1 -AP,(c) 40 μM AP-I,60.6%
same,Peak area as % Initial AP: AP,(c) 40 μM AP-III,38.1%
same,Peak area as % Initial AP: AP + des Ser^1 -AP,(c) 40 μM AP-III,86.1%
same,Peak area as % Initial AP: des Ser^1 -AP,(c) 40 μM AP-III,48.0%
same,Peak area as % Initial AP: AP,(c) 40 μM SLRR(Met^8)AP-III,86.5%
same,Peak area as % Initial AP: AP + des Ser^1 -AP,(c) 40 μM SLRR(Met^8)AP-III,86.5%
same,Peak area as % Initial AP: des Ser^1 -AP,(c) 40 μM SLRR(Met^8)AP-III,0%

# — patent US4740499A, “Method of enhancing the bioactivity of atrial peptides” (Monsanto Company, priority 1986, dated 1988)
